Laboratory results: patent US20220347206A1 (NPO Petrovax Pharm, LLC, priority 2021, published 2022)
Where “and” joins values, the source holds several entries; their conditions need not be identical. Identical values can stand only once.

Tests used:
COVID-19 [1] = details: human, in vivo
leukocytes = details: after penetrating leukocytes by endocytosis; cited from earlier work
T-cell = details: in vitro; cited from earlier work
COVID-19 [2] = details: human, in vivo; remark: listed apart in the source
immature DC = details: in vitro; cited from earlier work
natural killer cell = details: in vitro; cited from earlier work

Azoximer bromide [AZB]
Absolute number of ARI cases, control group versus main (AZB) group (COVID-19 [1]): more than 10 times higher | Afflicted by ARI, number (COVID-19 [1]): 32 | Afflicted by ARI, percent (COVID-19 [1]): 13.1% | Afflicted by acute respiratory illness (ARI), percent (COVID-19 [1]): 0.3% | Cases of ARI (COVID-19 [1]): 3 cases | Cases of COVID-19 (COVID-19 [1]): 1 case | Confirmed diagnosis of COVID-19 (PCR or antibody test), number (COVID-19 [1]): 2 | Confirmed diagnosis of COVID-19 (PCR or antibody test), percent (COVID-19 [1]): 0.3% | Confirmed diagnosis of COVID-19 (PCR test data), number (COVID-19 [1]): 6 | Confirmed diagnosis of COVID-19 (PCR test data), percent (COVID-19 [1]): 2.4% | Number of ARI cases, control group versus main (AZB) group (COVID-19 [1]): more than 30 times | Participants who developed pneumonia, percent (reported ARI cases) (COVID-19 [1]): 0% | Intracellular hydrogen peroxide (leukocytes): significant dose-dependent increases | T-cell proliferation (T-cell): induce T-cell proliferation | Body temperature normalisation (≤37° C.) (COVID-19 [2]): all patients had a normal body temperature | Day 15 OS score 1 (not hospitalized, no limitations on activities), % (COVID-19 [2]): 1.3% and 1 (1.3) % | Day 15 OS score 2 (not hospitalized, limitation on activities), % (COVID-19 [2]): 35.1% and 27 (35.1) % | Day 15 OS score 3 (hospitalized, not requiring supplemental oxygen), % (COVID-19 [2]): 45.5% and 35 (45.5) % | Day 15 OS score 4 (hospitalized, requiring supplemental oxygen), % (COVID-19 [2]): 9 (11.7) % | Day 15 OS score 5 (hospitalized, on noninvasive ventilation or high flow oxygen devices), % (COVID-19 [2]): 3.9% and 3 (3.9) % | Day 15 OS score 6 (hospitalized, on invasive mechanical ventilation or extracorporeal membrane oxygenation), % (COVID-19 [2]): 2.6% and 2 (2.6) % | Day 15 OS score 7 (death), % (COVID-19 [2]): 0 (0.0) % | Day 15 Ordinal Scale score, mean (COVID-19 [2]): 2.90 | Day 28 Mortality: alive, % (COVID-19 [2]): 77 (100.0) % | Day 28 Mortality: dead, % (COVID-19 [2]): 0 (0.0) % | Duration of hospitalization, mean (COVID-19 [2]): 19.32 days and 19.13^g days and 19.32^h days | Duration of hospitalization, median (COVID-19 [2]): 19.0 days and 19.0^c days | Improvement probability (NEWS) (COVID-19 [2]): > 80% | Mean (SD) NEWS (COVID-19 [2]): 1.08 (1.18) | Mean C-reactive protein (CRP) (COVID-19 [2]): 13.21 mg/L | Mean oxygen saturation (COVID-19 [2]): 96.90% and 96.98% | Mean time to an OS score improving to ≤2 (COVID-19 [2]): 15.9 days | Mean time to vanishing signs of pneumonia (COVID-19 [2]): 18.45 days | Median C-reactive protein (CRP) (COVID-19 [2]): 8.5 mg/L | Number of patients requiring respiratory support (OS=4-6) (COVID-19 [2]): 14 patients | Patients with an OS score of 2 or 3, percent (COVID-19 [2]): 93.5% | Pneumonia presence, number of patients (COVID-19 [2]): 18 patients | Pneumonia presence, percent of patients (COVID-19 [2]): 23.4% | Probability of achieving a normal body temperature (COVID-19 [2]): 90% | Respiratory support requirement (COVID-19 [2]): No patients required respiratory support | SpO2 value of the one patient below the reference range (COVID-19 [2]): 94% | Immature DC expansion (immature DC): increase immature DC expansion | Natural killer cell degranulation (natural killer cell): increase natural killer cell degranulation
